Assays:
[1] = tested on: RKO colon adenocarcinoma cells (RKOp27) arrested by expression of ectopic p27Kip1; test: Alamar Blue cell viability assay on RKOp27 cells arrested by Ponasterone A-induced p27Kip1 (cell cycle specific mode of action); type: cell-based; conditions: Homo sapiens, RKOp27, 72 h, cells arrested by p27Kip1 induced with 10 μM Ponasterone A, 72 hours incubation, read-out: IC50 RKO p27 arrested
How it was run: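 Viability measured by Alamar Blue fluorescence (ex 544, em 590 nm) after 72 h, 37 °C compound exposure in quadruplicate, normalized to untreated cells as 100%. Cells were p27Kip1-arrested RKOp27, induced with 10 μM Ponasterone A at seeding; compound added 24 h later.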

[2] = tested on: RKO (RKOp27) human colon adenocarcinoma cells; test: Alamar Blue cell viability assay, anti-proliferative/cytotoxic activity on proliferating RKOp27 cells; type: cell-based; conditions: absence of Ponasterone A, 72 hours incubation, read-out: IC50 RKO p27 proliferating
How it was run: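 IC50 values come from concentration-effect curves of Alamar Blue fluorescence (544/590 nm), relative to untreated controls set at 100%. Cells were RKOp27, seeded at 4000/well in DMEM with 10% FCS and exposed from 24 h post-seeding for 72 h (37 °C, 5% CO2) to semi-log dilutions, each run in quadruplicate.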

SMILES | IC50 [1] | IC50 [2]
COC(=O)CCOC(=O)N1CCc2c(sc(NC(=O)/C=C/c3cccnc3)c2C#N)C1 [Example 162, 3-Cyano-2-((E)-3-pyridin-3-yl-allanoylamino)-4,7-dihydro-5H-thieno[2,3-c]pyridine-6-carboxylic acid 2-methoxycarbonyl-ethyl ester] | ≥ 100 µM | ≤ 2 µM
CC1(C)OCC(COC(=O)N2CCc3c(sc(NC(=O)/C=C/c4cccnc4)c3C#N)C2)O1 (stereo not shown) [Example 164, 3-Cyano-2-((E)-3-pyridin-3-yl-allanoylamino)-4,7-dihydro-5H-thieno[2,3-c]pyridine-6-carboxylic acid 2,2-dimethyl-[1,3]dioxolan-4-ylmethyl ester] | ≥ 100 µM | ≤ 2 µM
N#Cc1c(NC(=O)/C=C/c2cccnc2)sc2c1CCN(C(=O)OCCOCc1ccccc1)C2 [Example 166, 3-Cyano-2-((E)-3-pyridin-3-yl-allanoylamino)-4,7-dihydro-5H-thieno[2,3-c]pyridine-6-carboxylic acid 2-benzyloxy-ethyl ester] | ≥ 100 µM | ≤ 2 µM
COCCOC(=O)N1CCc2c(sc(NC(=O)/C=C/c3cccnc3)c2C#N)C1 [Example 167, 3-Cyano-2-((E)-3-pyridin-3-yl-allanoylamino)-4,7-dihydro-5H-thieno[2,3-c]pyridine-6-carboxylic acid 2-methoxy-ethyl ester] | ≥ 100 µM | ≤ 2 µM
N#Cc1c(NC(=O)/C=C/c2cccnc2)sc2c1CCN(C(=O)OC1CCCCC1)C2 [Example 168, 3-Cyano-2-((E)-3-pyridin-3-yl-allanoylamino)-4,7-dihydro-5H-thieno[2,3-c]pyridine-6-carboxylic acid cyclohexyl ester] | ≥ 50 µM | ≤ 0.5 µM
N#Cc1c(NC(=O)/C=C/c2ccccc2)sc2c1CCN(C(=O)CCc1c[nH]c3ccccc13)C2 [Example 171, (E)-N-[3-Cyano-6-(3-1H-indol-3-yl-propanoyl)-4,5,6,7-tetrahydro-thieno[2,3-c]pyridin-2-yl]-3-phenyl-acrylamide] | ≥ 100 µM | ≤ 2 µM
N#Cc1c(NC(=O)/C=C/c2ccccc2)sc2c1CCN(C(=O)CCCc1c[nH]c3ccccc13)C2 [Example 172, (E)-N-[3-Cyano-6-(4-1H-indol-3-yl-butanoyl)-4,5,6,7-tetrahydro-thieno[2,3-c]pyridin-2-yl]-3-phenyl-acrylamide] | ≥ 100 µM | ≤ 2 µM
N#Cc1c(NC(=O)/C=C/c2ccccc2)sc2c1CCN(C(=O)Cc1ccccn1)C2 [Example 174, (E)-N-[3-Cyano-6-(2-pyridin-2-yl-ethanoyl)-4,5,6,7-tetrahydro-thieno[2,3-c]pyridin-2-yl]-3-phenyl-acrylamide] | ≥ 100 µM | ≤ 2 µM
COCCOCC(=O)N1CCc2c(sc(NC(=O)/C=C/c3ccccc3)c2C#N)C1 [Example 175, (E)-N-{3-Cyano-6-[2-(2-methoxy-ethoxy)-ethanoyl]-4,5,6,7-tetrahydro-thieno[2,3-c]pyridin-2-yl}-3-phenyl-acrylamide] | ≥ 100 µM | ≤ 2 µM
CCOC(=O)CC(=O)N1CCc2c(sc(NC(=O)/C=C/c3ccccc3)c2C#N)C1 [Example 176, 3-[3-Cyano-2-((E)-3-phenyl-allanoylamino)-4,7-dihydro-5H-thieno[2,3-c]pyridin-6-yl]-3-oxo-propionic acid ethyl ester] | ≥ 100 µM | ≤ 2 µM
COCCC(=O)N1CCc2c(sc(NC(=O)/C=C/c3ccccc3)c2C#N)C1 [Example 177, (E)-N-[3-Cyano-6-(3-methoxy-propanoyl)-4,5,6,7-tetrahydro-thieno[2,3-c]pyridin-2-yl]-3-phenyl-acrylamide] | ≥ 100 µM | ≤ 2 µM
CN(C)C(=O)CCC(=O)N1CCc2c(sc(NC(=O)/C=C/c3ccccc3)c2C#N)C1 [Example 178, 4-[3-Cyano-2-((E)-3-phenyl-allanoylamino)-4,7-dihydro-5H-thieno[2,3-c]pyridin-6-yl]-N,N-dimethyl-4-oxo-butyramide] | ≥ 100 µM | ≤ 2 µM
COCC(=O)N1CCc2c(sc(NC(=O)/C=C/c3ccccc3)c2C#N)C1 [Example 181, (E)-N-[3-Cyano-6-(2-methoxy-ethanoyl)-4,5,6,7-tetrahydro-thieno[2,3-c]pyridin-2-yl]-3-phenyl-acrylamide] | ≥ 100 µM | ≤ 2 µM
N#Cc1c(NC(=O)/C=C/c2ccccc2)sc2c1CCN(C(=O)Cc1c[nH]c3ccccc13)C2 [Example 182, (E)-N-[3-Cyano-6-(2-1H-indol-3-yl-ethanoyl)-4,5,6,7-tetrahydro-thieno[2,3-c]pyridin-2-yl]-3-phenyl-acrylamide] | ≥ 50 µM | ≤ 0.5 µM
N#Cc1c(NC(=O)/C=C/c2ccccc2)sc2c1CCN(C(=O)Cc1cccnc1)C2 [Example 183, (E)-N-[3-Cyano-6-(2-pyridin-3-yl-ethanoyl)-4,5,6,7-tetrahydro-thieno[2,3-c]pyridin-2-yl]-3-phenyl-acrylamide] | ≥ 100 µM | ≤ 2 µM
N#Cc1c(NC(=O)/C=C/c2ccccc2)sc2c1CCN(C(=O)CCc1cccnc1)C2 [Example 185, (E)-N-[3-Cyano-6-(3-pyridin-3-yl-propanoyl)-4,5,6,7-tetrahydro-thieno[2,3-c]pyridin-2-yl]-3-phenyl-acrylamide] | ≥ 100 µM | ≤ 2 µM
COC(=O)CCCC(=O)N1CCc2c(sc(NC(=O)/C=C/c3ccccc3)c2C#N)C1 [Example 186, 5-[3-Cyano-2-((E)-3-phenyl-allanoylamino)-4,7-dihydro-5H-thieno[2,3-c]pyridin-6-yl]-5-oxo-pentanoic acid methyl ester] | ≥ 100 µM | ≤ 2 µM
N#Cc1c(NC(=O)/C=C/c2ccccc2)sc2c1CCN(C(=O)CO)C2 [Example 187, (E)-N-[3-Cyano-6-(2-hydroxy-ethanoyl)-4,5,6,7-tetrahydro-thieno[2,3-c]pyridin-2-yl]-3-phenyl-acrylamide] | ≥ 100 µM | ≤ 2 µM
N#Cc1c(NC(=O)/C=C/c2ccccc2)sc2c1CCN(C(=O)Cn1ccnc1)C2 [Example 188, (E)-N-[3-Cyano-6-(2-imidazol-1-yl-ethanoyl)-4,5,6,7-tetrahydro-thieno[2,3-c]pyridin-2-yl]-3-phenyl-acrylamide] | ≥ 100 µM | ≤ 2 µM
CC(=O)OCC(=O)N1CCc2c(sc(NC(=O)/C=C/c3ccccc3)c2C#N)C1 [Example 189, Acetic acid 2-[3-cyano-2-((E)-3-phenyl-allanoylamino)-4,7-dihydro-5H-thieno[2,3-c]pyridin-6-yl]-2-oxo-ethyl ester] | ≥ 100 µM | ≤ 2 µM
N#Cc1c(NC(=O)/C=C/c2ccccc2)sc2c1CCN(C(=O)CCCn1ccnc1)C2 [Example 190, (E)-N-[3-Cyano-6-(4-imidazol-1-yl-butanoyl)-4,5,6,7-tetrahydro-thieno[2,3-c]pyridin-2-yl]-3-phenyl-acrylamide] | ≥ 100 µM | ≤ 2 µM
CC(=O)OCCCC(=O)N1CCc2c(sc(NC(=O)/C=C/c3ccccc3)c2C#N)C1 [Example 191, Acetic acid 4-[3-cyano-2-((E)-3-phenyl-allanoylamino)-4,7-dihydro-5H-thieno[2,3-c]pyridin-6-yl]-4-oxo-butyl ester] | ≥ 100 µM | ≤ 2 µM
N#Cc1c(NC(=O)/C=C/c2ccccc2)sc2c1CCN(C(=O)CCCO)C2 [Example 192, (E)-N-[3-Cyano-6-(4-hydroxy-butanoyl)-4,5,6,7-tetrahydro-thieno[2,3-c]pyridin-2-yl]-3-phenyl-acrylamide] | ≥ 100 µM | ≤ 2 µM
N#Cc1c(NC(=O)/C=C/c2cccnc2)sc2c1CCN(C(=O)CCc1cccnc1)C2 [Example 193, (E)-N-[3-Cyano-6-(3-pyridin-3-yl-propanoyl)-4,5,6,7-tetrahydro-thieno[2,3-c]pyridin-2-yl]-3-pyridin-3-yl-acrylamide] | ≥ 100 µM | ≤ 2 µM
COCC(=O)N1CCc2c(sc(NC(=O)/C=C/c3cccnc3)c2C#N)C1 [Example 194, (E)-N-[3-Cyano-6-(2-methoxy-ethanoyl)-4,5,6,7-tetrahydro-thieno[2,3-c]pyridin-2-yl]-3-pyridin-3-yl-acrylamide] | ≥ 100 µM | ≤ 2 µM
COCCC(=O)N1CCc2c(sc(NC(=O)/C=C/c3cccnc3)c2C#N)C1 [Example 195, (E)-N-[3-Cyano-6-(3-methoxy-propanoyl)-4,5,6,7-tetrahydro-thieno[2,3-c]pyridin-2-yl]-3-pyridin-3-yl-acrylamide] | ≥ 100 µM | ≤ 2 µM
N#Cc1c(NC(=O)/C=C/c2cccnc2)sc2c1CCN(C(=O)Cc1ccccn1)C2 [Example 196, (E)-N-[3-Cyano-6-(2-pyridin-2-yl-ethanoyl)-4,5,6,7-tetrahydro-thieno[2,3-c]pyridin-2-yl]-3-pyridin-3-yl-acrylamide] | ≥ 100 µM | ≤ 2 µM
N#Cc1c(NC(=O)/C=C/c2cccnc2)sc2c1CCN(C(=O)CCc1nccs1)C2 [Example 198, (E)-N-[3-Cyano-6-(3-thiazol-2-yl-propanoyl)-4,5,6,7-tetrahydro-thieno[2,3-c]pyridin-2-yl]-3-pyridin-3-yl-acrylamide] | ≥ 100 µM | ≤ 2 µM
COCCOCC(=O)N1CCc2c(sc(NC(=O)/C=C/c3cccnc3)c2C#N)C1 [Example 200, (E)-N-{3-Cyano-6-[2-(2-methoxy-ethoxy)-ethanoyl]-4,5,6,7-tetrahydro-thieno[2,3-c]pyridin-2-yl}-3-pyridin-3-yl-acrylamide] | ≥ 100 µM | ≤ 2 µM

Reference: patent publication US7723523B2, “Tetrahydropyridothiophenes” (4SC AG, priority 2004, dated 2010)
